The data set is described as follows: gradient 5% acetonitrile 3 min, to 50% in 2 min, to 85% in 15 min, held 3 min, 100 µL/min. The note with it: column: Zorbax Extend-C18 2.1 x 50 mm; eluents: water / acetonitrile, 0.1% formic acid. A digest of the protocol: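 In both positive and negative ionization mode, a quadrupole time-of-flight mass spectrometer coupled to HPLC analyzed pure standards run in mixtures of ~100 molecules. The Zorbax Extend-C18 column (2.1 × 50 mm, 1.8 μm) was operated at 100 μL/min with water and acetonitrile, each containing 0.1% formic acid. The dead volume was 40 μL and the dwell volume 900 μL. Retention time came from adduct peaks that were computationally picked and individually inspected by hand.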
With `O=C(c1cc2c(s1)CCCC2)N1CCCN(c2nnc3ccc(Cl)cn23)CC1`, the RP-LC retention time is 863 s.

In turn, `Cc1ccccc1-c1noc(Cn2c(=O)n(CCc3ccccc3)c(=O)c3sccc32)n1` yielded an RP-LC retention time of 1200 s.

In the case of `COc1ccccc1OCCN1C(=O)CCc2c(C)ncnc21`, the RP-LC retention time worked out at 696 s.

As for `CN(C)CCNc1ccc(-c2nc(-c3cccc(F)c3)no2)cn1`, the RP-LC retention time worked out at 678 s.

The molecule `O=C(NCC1COc2ccccc2O1)C(=O)N1CCCCC1` (centres undefined) showed an RP-LC retention time of 757 s.

`CCOC(=O)c1c(C)oc2nc(C)nc(NC3CCCc4ccccc43)c12` (centres undefined) registered an RP-LC retention time of 1130 s.

`NC(=O)Cn1c(CNC(=O)c2ccccc2)nc2ccccc21` had an RP-LC retention time of 573 s.

Turning to `CC(C)CN1C(=O)c2cccn2CC1C(=O)NC1CCCCCC1` (centres undefined), the RP-LC retention time is 812 s.

The molecule `CN1CCN(CCCNC(=O)C2CCc3sc(C(=O)N4CCCCCC4)cc3C2)CC1` (centres undefined) showed an RP-LC retention time of 581 s.

As for `CC1CCCCN1S(=O)(=O)c1ccc2c(c1)CCC(=O)N2CC(=O)NCCc1ccccc1` (centres undefined), the RP-LC retention time came out at 900 s.

`Cc1noc([C@@H]2CN(C(=O)c3ccoc3C)C[C@H]2C(N)=O)n1` showed an RP-LC retention time of 599 s.

Turning to `Cc1cccc(C)c1NC(=O)Cn1c(C)nc2onc(C)c2c1=O`, the RP-LC retention time amounted to 845 s.

For `COc1ccccc1NC(=O)NC1CCCC(OC(=O)Nc2ccc(F)cc2)C1` (centres undefined), the RP-LC retention time turned out to be 883 s.

Turning to `Cc1ccc(-c2noc(CN3N=NC4C(=O)N(c5ccc6c(c5)CCC6)C(=O)C43)n2)cc1` (centres undefined), the RP-LC retention time is 1110 s.

`CC(C)CN(CC1CCCO1)C(=O)CN1CC2=C(C1=O)C(c1ccccc1Cl)NC(=O)N2C` (centres undefined) returned an RP-LC retention time of 999 s.

`Cc1ccc2c(Nc3ccccc3C)c(-c3nc(C)no3)cnc2n1` yielded an RP-LC retention time of 743 s.

With `CCC1=C[C@@H]2CN3CCc4c([nH]c5ccccc45)[C@@](C(=O)OC)(C2)[C@@H]13`, the RP-LC retention time was 728 s.

Molecule `Cc1ccc(-c2nc3cnccn3c2Nc2ccc(Cl)cc2)cc1` came in with an RP-LC retention time of 1000 s.

In turn, `Cc1cccc(NC(=O)NC2CCN(c3cc(C)cc(C)c3)C2=O)c1` (centres undefined) showed an RP-LC retention time of 945 s.

`Cc1ccc(C)c(N2CCN(c3ccnc(SCC(=O)NC4CCCCC4)n3)CC2)c1` had an RP-LC retention time of 940 s.

In turn, `Cc1cc(NC(=O)Cc2cc(-c3ccccc3F)on2)no1` returned an RP-LC retention time of 772 s.

`O=C(C1CCN(c2nnc(-c3ccccc3)o2)CC1)N1CCN(c2ccccc2)CC1` returned an RP-LC retention time of 857 s.

With `COc1ccc(-c2n[nH]c3c2C(c2ccc(OC)c(OC)c2)NC3=O)cc1` (centres undefined), the RP-LC retention time came out at 637 s.

The molecule `CC(=O)N1CCc2cc(N3CC(C(=O)Nc4ccccc4F)CC3=O)ccc21` (centres undefined) returned an RP-LC retention time of 690 s.

In turn, `CCc1nc2cccnc2n1CCN1CCN(C(=O)Nc2ccccc2Br)CC1` showed an RP-LC retention time of 641 s.

Molecule `CCn1nccc1C(=O)NC1CCN(C2=NS(=O)(=O)C(c3ccc(C)cc3)=C2C)CC1` showed an RP-LC retention time of 817 s.

As to `CCCCS(=O)(=O)N1CCCC(Cn2c(C3CC3)nc3cccnc32)C1` (centres undefined), the RP-LC retention time came out at 698 s.

Consider `Cc1ccc(-c2nccn3cc(C(=O)N4CCN(CC(C)C)CC4)nc23)cc1`, for which the RP-LC retention time came to 656 s.

With `O=c1n(Cc2ccccc2)nc2ccc(S(=O)(=O)N3CCCC3)cn12`, the RP-LC retention time turned out to be 675 s.

As for `CCN(Cc1ccccc1)C(=O)Cn1cccc1-c1nnc(-c2ccccc2)o1`, the RP-LC retention time came to 1050 s.

`CCOC(=O)c1cc(S(=O)(=O)N2CCCC2C(=O)NC(C)C)cn1C` (centres undefined) showed an RP-LC retention time of 746 s.

For `CCc1noc(-c2nc(-c3ccccc3OC)no2)n1`, the RP-LC retention time was 986 s.

The molecule `CO[C@H]1C(=O)N(C2CCN(S(=O)(=O)c3ccc(C#N)cc3)CC2)[C@H]1c1ccncc1` returned an RP-LC retention time of 624 s.

Turning to `O=C(NCc1ccc2c(c1)OCO2)C1CCN(c2ccc(SCc3ccccc3)nn2)CC1`, the RP-LC retention time came to 742 s.

The molecule `Cc1nc(-c2nnn(Cc3ccccc3)c2C)no1` gave an RP-LC retention time of 836 s.

`O=C(Nc1ccc(N2CCN(Cc3ccc(F)cc3)C2=O)nc1)c1ccco1` returned an RP-LC retention time of 749 s.

For the molecule `CC(C)c1noc(-c2ccnc(-n3cnc(C(=O)NCc4ccco4)c3)c2)n1`, the RP-LC retention time stood at 809 s.

For `Cc1ccc(OCc2nn3c(COc4ccc(F)cc4)nnc3s2)cc1C`, the RP-LC retention time was 1100 s.

The molecule `O=C(NC1CCCCCCC1)C1CCN(S(=O)(=O)c2ccc(-c3noc(C4CC4)n3)cc2)CC1` registered an RP-LC retention time of 1120 s.

As to `COc1cc([C@@H]2c3cc4c(cc3[C@H](O)[C@@H](CO)[C@@H]2C(=O)NCc2ccc(OC(C)C)cc2)OCO4)cc(OC)c1OC`, the RP-LC retention time was found to be 770 s.

Turning to `CCCNC(=O)c1c(C)sc2ccn(Cc3ccc(F)cc3)c(=O)c12`, the RP-LC retention time was 863 s.

`Cc1ccc(NC(=O)C2CCN(C(=O)C3Sc4ccccc4NC3=O)CC2)cc1` (centres undefined) yielded an RP-LC retention time of 749 s.

`Cc1cccc(-c2nnc(-c3ccc(Cl)c(S(=O)(=O)N(C)C)c3)o2)c1` showed an RP-LC retention time of 1040 s.

`COc1ccccc1-c1noc(CN2C(=O)COc3cc(Cl)ccc32)n1` returned an RP-LC retention time of 974 s.

Molecule `Cc1ccc(C(=O)CSc2ccc(NC(=O)C(C)C)nn2)c(C)c1` registered an RP-LC retention time of 890 s.

`CCOc1ccc(CNC(=O)c2cn3ccccc3n2)cc1` registered an RP-LC retention time of 687 s.

In turn, `COc1ccc(C2(C(=O)N3[C@H]4CC[C@@H]3c3cnc(C)nc3C4)CCCCC2)cc1` returned an RP-LC retention time of 812 s.

`Cc1noc(C)c1CCNC(=O)C(C)n1c2ccccc2c2cnn(C)c(=O)c21` (centres undefined): the RP-LC retention time was found to be 741 s.

On to `O=C(C1=CN(c2ccc3c(c2)CCC3)c2ccccc2S1(=O)=O)N1CCOCC1`, for which the RP-LC retention time amounted to 850 s.

On to `COC(=O)c1cc(OCC(=O)NCc2ccc3c(c2)OCO3)c2cc(Cl)ccc2n1`, for which the RP-LC retention time worked out at 827 s.

For `CCCN(C(=O)c1ccco1)c1nc(-c2ccc(C)cc2)cs1`, the RP-LC retention time came out at 1390 s.

`CCOC(=O)c1nc(NCCCN2CCN(c3cc(Cl)ccc3C)CC2)c2ccccc2n1` showed an RP-LC retention time of 731 s.

Molecule `COc1ccc(NC(=O)N2CCC(c3nc(C(=O)N(C)C)c(C)o3)CC2)cc1OC` yielded an RP-LC retention time of 635 s.

For `CCn1cc(-c2nc(C)c(C(=O)Nc3ccc(F)cc3)s2)c2cccnc21`, the RP-LC retention time came out at 999 s.

In the case of `CC1CCCCN1S(=O)(=O)c1ccc(Cl)c(C(F)(F)F)c1` (centres undefined), the RP-LC retention time was 1120 s.

`Cc1ccc(Cn2c(N3CCCC(C(=O)NCCC4=CCCCC4)C3)nc3ccsc3c2=O)cc1` (centres undefined) yielded an RP-LC retention time of 1150 s.

As for `O=C(NCC1CC1)C1CCN(C(=O)c2ncn3c2COC(c2ccc(Cl)cc2)C3)CC1` (centres undefined), the RP-LC retention time was 758 s.

Molecule `O=S(=O)(CCCOc1ccc(F)cc1)NC1CC1` returned an RP-LC retention time of 785 s.

In turn, `CCNc1cc(N2CCCC(CCC(=O)NCCOC)C2)ncn1` (centres undefined) came in with an RP-LC retention time of 580 s.

The molecule `CCOC(=O)c1c(S(=O)(=O)N2CCC(C(=O)Nc3ccc(CC)cc3)CC2)c(C)n(CC)c1C` displayed an RP-LC retention time of 984 s.

Turning to `Cc1cc(N2CCN(C)CC2)nc2ccc(NC(=S)NC3CCCC(C)C3C)cc12` (centres undefined), the RP-LC retention time amounted to 639 s.

`CCN(Cc1ccccc1)Cc1nc(-c2ccc(N3CCOCC3)nc2)no1` registered an RP-LC retention time of 772 s.

Molecule `COC(=O)c1cccc(Nc2c(-c3ccc(C)cc3)nc3cnccn23)c1` gave an RP-LC retention time of 849 s.

In turn, `Cc1[nH]c(C(=O)N2CCC(CC(=O)NCCCN3CCCC(C)C3)CC2)c(C)c1C` (centres undefined) had an RP-LC retention time of 610 s.

On to `O[C@@H]1CCCCC1N1CCC(c2ccccc2)CC1` (some centres undefined), for which the RP-LC retention time stood at 702 s.

As for `O=C(Cn1c(=O)c2cc(C3CC3)nn2c2ncccc21)Nc1ccccc1`, the RP-LC retention time worked out at 752 s.

In turn, `CCOC(=O)c1nc(N(CCC(=O)OC)c2ccccc2)c2ccccc2n1` displayed an RP-LC retention time of 919 s.

Take `CC1CCN(C(=O)C2CCN(c3nc4ccc(-c5ccccc5)nc4s3)CC2)CC1`: the RP-LC retention time was 1140 s.

Regarding `CCOc1ccc(-c2nc(Cc3noc(-c4ccc(C#N)cc4)n3)c(C)o2)cc1`, the RP-LC retention time is 1160 s.

Molecule `Cc1cccc(CNC(=O)C2(C)Oc3cccnc3N(C(C)C)C2=O)c1` (centres undefined) showed an RP-LC retention time of 1120 s.

In turn, `Cc1cccc(N(C)C(=O)Cn2c(=O)n(-c3cccc(C)c3)c(=O)c3c2cc(C)n3C)c1` had an RP-LC retention time of 752 s.

In the case of `Cc1ccc(CCC(=O)Nc2c(C)cccc2C(=O)O)o1`, the RP-LC retention time was found to be 726 s.

On to `CCCCN1CCN(C(=O)C2CCCN(c3cnc4nccnc4c3)C2)CC1` (centres undefined), for which the RP-LC retention time was found to be 569 s.

With `O=C(c1cn(-c2cc(N3CCCCC3)ncn2)cn1)N1CCc2ccccc2C1`, the RP-LC retention time came to 973 s.

Turning to `c1ccc([C@@H]2NCCO[C@H]2COc2ccccn2)cc1`, the RP-LC retention time was determined as 595 s.

Molecule `CCN1CCCC1CNC(=O)Cn1c(=O)c2cccn2c2ccc(F)cc21` (centres undefined) returned an RP-LC retention time of 614 s.

In turn, `CCCNC(=O)N1CCCN(C2=NS(=O)(=O)C(c3ccc(C)c(C)c3)=C2C)CC1` gave an RP-LC retention time of 809 s.

Consider `Cc1ccc(NC(=O)c2ccc3c(c2)N(CC(=O)N2CCCC2)C(=O)CO3)nc1`, for which the RP-LC retention time came to 619 s.

The molecule `Cc1nn2c(CNS(=O)(=O)c3cc(F)cc(F)c3)c(-c3ccccc3)nc2s1` yielded an RP-LC retention time of 905 s.

These data come from the METLIN SMRT retention time set (Domingo-Almenara et al. 2019).
